In ChEMBL document CHEMBL4476868, “Benzimidazole derivatives and uses thereof” (2017) one finds IC50 data, which are given here for 35 molecules.

Structures are written as SMILES. pIC50: −log10 of the molar value.

The target in the test is Acetyl-coenzyme A synthetase, cytoplasmic (Homo sapiens, UniProt Q9NR19). As to the kind of experiment: Inhibition of N-terminal 6x-histidine tagged human ACSS2 expressed in insect cells assessed as reduction in pyrophosphate production using CoA and ATP incubated for 30 mins by pyrophosphatase coupled enzymatic assay.
Chain of Acetyl-coenzyme A synthetase, cytoplasmic (Q9NR19 whole entry): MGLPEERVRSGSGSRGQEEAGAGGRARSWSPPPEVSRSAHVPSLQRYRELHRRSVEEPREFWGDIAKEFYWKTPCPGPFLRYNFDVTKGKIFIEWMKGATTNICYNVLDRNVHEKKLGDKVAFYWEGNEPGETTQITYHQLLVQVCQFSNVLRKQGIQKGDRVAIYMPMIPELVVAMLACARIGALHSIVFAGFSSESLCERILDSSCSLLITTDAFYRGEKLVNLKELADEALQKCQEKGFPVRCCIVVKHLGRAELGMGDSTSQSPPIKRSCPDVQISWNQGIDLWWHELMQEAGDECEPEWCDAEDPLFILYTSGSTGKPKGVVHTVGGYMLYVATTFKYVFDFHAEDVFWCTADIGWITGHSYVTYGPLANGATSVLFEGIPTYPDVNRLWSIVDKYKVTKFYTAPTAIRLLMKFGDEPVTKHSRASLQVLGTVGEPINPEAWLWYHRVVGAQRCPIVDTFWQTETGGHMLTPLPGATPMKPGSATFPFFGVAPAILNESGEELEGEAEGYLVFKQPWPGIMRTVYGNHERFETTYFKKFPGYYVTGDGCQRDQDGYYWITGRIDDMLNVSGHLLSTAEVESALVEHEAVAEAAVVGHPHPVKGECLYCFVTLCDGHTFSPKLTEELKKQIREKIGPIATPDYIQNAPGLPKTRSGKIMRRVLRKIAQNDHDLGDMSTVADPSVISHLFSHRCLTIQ

Consider `CCn1c(C(O)(c2ccccc2)c2ccccc2)nc2ccc(C(=O)Nc3ccc(OC)cc3)cc21`, for which the pIC50 (commonly the negative decadic logarithm of the IC50, by convention in mol/L) was 6.60 to 7.30.

On to `CCn1c(C(O)(c2ccccc2)c2ccccc2)nc2ccc(OCC(O)CO)cc21` (stereo not given), for which the pIC50 was 6.00 to 6.60.

For the molecule `CCn1c(C(O)(c2ccccc2)c2ccccc2)nc2ccc(COc3ccccc3)cc21`, the pIC50 was 6.00 to 6.60.

On to `Cc1ccc2c(c1)nc(C(O)(c1ccccc1)c1ccccc1)n2C`, for which the negative-log IC50 (pIC50) is 6.00 to 6.60.

Consider `CCNC(=O)c1cccc(C(O)(c2ccccc2)c2nc3ccc(Cl)cc3n2C)c1` (stereo not given), for which the negative logarithm of the IC50 (pIC50) was < 6.00.

For the molecule `CCn1c(C(O)(c2ccccc2)c2ccccc2)nc2c1cnn2C`, the pIC50 is 6.00 to 6.60.

Regarding `CCn1c(C(O)(c2ccccc2)c2ccccc2)nc2ccc(C(OC(C)=O)C(F)(F)COC(C)=O)cc21` (stereo not given), the pIC50 is 6.60 to 7.30.

On to `CCn1c(C(OC)(c2ccccc2)c2ccccc2)nc2ccc(C(=O)NCC(F)(F)C#N)cc21`, for which the pIC50 was 6.00 to 6.60.

In the case of `CCn1c(C(O)(c2ccccc2)c2ccccc2)nc2ccc(C(N)=O)cc21`, the pIC50 was 6.60 to 7.30.

For `CCn1c(C(O)(c2ccccc2)c2ccccc2)nc2ccc(OCCN(C)C)cc21`, the pIC50 was < 6.00.

On to `C[C@@H](O)CNC(=O)c1ccc2nc(C(O)(c3ccccc3)c3ccccc3)n(CCF)c2c1`, for which the pIC50 is 6.60 to 7.30.

Turning to `CCOC(=O)C(F)(F)c1ccc2nc(C(O)(c3ccccc3)c3ccccc3)n(CC)c2c1`, the pIC50 was 6.60 to 7.30.

`CCn1c(C(O)(c2ccc(F)cc2)c2ncccc2F)nc2ccc(CCCO)cc21` (stereo not given): the pIC50 was 6.60 to 7.30.

As for `CCn1c(C(O)(c2ccccc2)c2ccccc2)nc2ccc(C(=O)NCCN(C)C)cc21`, the negative logarithm of the IC50 (pIC50) is 6.00 to 6.60.

On to `CNC(=O)c1ccc2nc(C(O)(c3ccccc3F)c3ccccc3F)n(C)c2c1`, for which the pIC50 was 6.60 to 7.30.

Consider `COc1ccc2c(c1)nc(C(O)(c1ccccc1)c1ccccc1)n2C`, for which the pIC50 was 6.60 to 7.30.

As to `CCn1c(C(O)(c2ccccc2)c2ccccc2)nc2ccc(C(=O)NC[C@H](O)CO)cc21`, the pIC50 was 6.60 to 7.30.

For `Cn1ccc(NC(=O)c2ccc3nc(C(O)(c4ccccc4F)c4ccccc4F)n(CCO)c3c2)n1`, the pIC50 is 6.60 to 7.30.

Consider `CCn1c(C(O)(c2ccccc2)c2ccc(F)cc2F)nc2ccc(C(=O)NCCO)cc21` (stereo not given), for which the pIC50 is 6.00 to 6.60.

Take `C[C@@H](O)CNC(=O)c1ccc2nc(C(O)(c3ccccc3)c3ccccc3)n(-c3ccccc3)c2c1`: the pIC50 is 6.00 to 6.60.

In the case of `CCn1c(C(O)(c2ccccc2)c2ccccc2)nc2ccc(C(=O)NCCO)cc21`, the pIC50 is 6.00 to 6.60.

Turning to `CCn1c(C(O)(c2ccccc2)c2ccccc2)nc2ccc(C3(O)CCCC3)cc21`, the pIC50 is 6.00 to 6.60.

Take `CCn1c(C(O)(c2ccccc2)c2ccccc2)nc2ccc(OCC(=O)N(C)C)cc21`: the pIC50 is 6.00 to 6.60.

Regarding `CCn1c(C(O)(c2ccccc2)c2ccccc2)nc2ccc(C(=O)Nc3cn(C)cn3)cc21`, the pIC50 was 6.60 to 7.30.

In the case of `CCn1c(C(O)(c2ccccc2)c2ccccc2)nc2cnc(OCCCO)cc21`, the pIC50 is 6.00 to 6.60.

For the molecule `CCn1c(C(O)(c2ccccc2)c2ccccc2)nc2ccc(C(=O)NCCOC)cc21`, the pIC50 was 6.00 to 6.60.

On to `CCn1c(C(O)(c2ccccc2)c2ccccc2)nc2ccc(C3(O)CCC3)cc21`, for which the pIC50 was < 6.00.

Regarding `Cc1ccc2nc(C(O)(c3ccccc3)c3cccc(=O)n3C)n(C)c2c1` (stereo not given), the pIC50 was < 6.00.

`CCn1c(C(O)(c2ccccc2)c2ccccc2)nc2ccc(C(=O)N3CCC(O)C3)cc21` (stereo not given): the pIC50 is < 6.00.

Consider `CCn1c(C(O)(c2ccccc2)c2ccccc2)nc2ccc(C(=O)N3CCCC3)cc21`, for which the pIC50 was < 6.00.

Take `CCn1c(C(O)(c2ccccc2)c2ccccc2)nc2ccc(C(=O)NC3CC(F)(F)C3)cc21`: the pIC50 is 6.00 to 6.60.

Take `CCn1c(C(O)(c2ccccc2)c2ccccc2)nc2ccc(C(=O)N3CCN(C)CC3)cc21`: the pIC50 was < 6.00.

In the case of `Cc1cccnc1C(O)(c1ccc(F)cc1)c1nc2ccc(C(=O)NC[C@@H](C)O)cc2n1C` (stereo not given in full), the pIC50 is 6.00 to 6.60.

As to `CN1C[C@@H](NC(=O)c2ccc3nc(C(O)(c4ccccc4)c4ccccc4)n(C)c3c2)CCC1=O`, the pIC50 is 6.60 to 7.30.

In the case of `CCOc1ccc2c(c1)nc(C(O)(c1ccccc1)c1ccccc1)n2C`, the pIC50 is 6.60 to 7.30.
